Assay results from US9675538B2, “Anti-aging agent containing arctigenin derivative” (ROHTO Pharmaceutical Co., Ltd., priority 2012, dated 2017).

Assays:
[1] = biological target: T1, elastase (derived from human leukocyte) (Homo sapiens, UniProt P08246); test: Elastase activity measurement; type: biochemical; conditions: compared with arctigenin; 37° C., 2 hours, absorbance at 405 nm
T1 construct: elastase (derived from human leukocyte); from tissue; host or cells: human leukocyte
T1 sequence (P08246 30-267): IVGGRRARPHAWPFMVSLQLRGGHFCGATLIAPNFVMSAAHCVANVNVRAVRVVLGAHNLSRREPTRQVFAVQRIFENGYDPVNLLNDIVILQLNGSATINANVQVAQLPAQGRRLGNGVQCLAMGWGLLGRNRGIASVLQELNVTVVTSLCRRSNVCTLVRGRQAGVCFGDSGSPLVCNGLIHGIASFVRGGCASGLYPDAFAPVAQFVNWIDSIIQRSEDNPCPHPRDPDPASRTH
Protocol: Into a 96-well plate were added 1 μL of each of the samples that was dissolved in DMSO, and 100 μL of elastase (derived from human leukocyte) adjusted to 10 μg/mL. Furthermore, to each of the wells was added to 50 μL of a substrate solution (Suc-(Ala)3-pNa) adjusted to 5 mM. A tris-HCL buffer (pH: 8.0) was used to adjust the final volume thereof to 200 μL. Under a condition at 37° C., the plate was heated for 2 hours. The absorbance of the sample at 405 nm was used as an index of the elastase activity, and the elastase inhibiting activity thereof was calculated in accordance with the following equation: The elastase inhibiting activity (%)=(the absorbance of each of the samples/the absorbance of the control)×100

B16F10 melanoma cells = test: Melanin production inhibition test using B16; type: cell-based; conditions: 0.1% (w/v), 72 hours, compared with arctigenin, n=3
Protocol: After 24 hours, the culture solution was removed. […] Furthermore, the cells were cultured for 72 hours.
The absorbance thereof was measured at 475 nm.

[2] = system: Endothelin-1 (ET-1) production from human epidermal keratinocytes; test: Evaluation on production inhibition of endothelin-1 (ET-1) in UVB-irradiated keratinocytes (ELISA); type: cell-based; conditions: UVB 80 mJ/cm^2, supernatant 48 hours after irradiation, relative to agent-free UVB control = 100
Protocol: Human epidermal keratinocytes were inoculated into 6-well plates to give an amount of 100000 cells per well, and then the cells were cultured for 3 days until the cells turned confluent. After it was verified that the cells turned confluent, their media were each substituted with PBS (−). The individual plates were irradiated with UVB at an irradiation intensity of 80 mJ/cm^2. After the irradiation with the UVB, DMEM in which arctigenin or each of the arctigenin derivatives was dissolved was added to one of the individual plates. After 48 hours from the irradiation, the supernatant (in the one plate) was collected, and the supernatant was centrifuged at 3000 rpm for 5 minutes. Furthermore, the supernatant therein was collected to prepare specimens for ELISA. As a control, a sample was used which was obtained by collecting a supernatant of an agent-free plate irradiated with UVB irradiation. A device used for measuring ET-1 was an Endthelin-1 Human EIA kit (manufactured by Assay Designs, Inc.). […] In each of FIGS. 1 to 3 and FIGS. 6 to 8, one of its vertical axes represents a relative value of each of the specimens when the ET-1 production amount of the control was regarded as 100. In each of FIGS. 1 to 3 and FIGS. 6 to 8, its graph line represents the respective cell survival rates (of the specimens) when the value of the control was regarded as 100%.

[3] = system: tyrosinase (originating from mushroom); test: Tyrosinase inhibiting activity measurement; type: biochemical; conditions: test concentration 0.01%, compared with arctigenin
Protocol: To each well of a 96-well plate were added 1 μL of a 1 w/w % of each of the samples (test concentration: 0.01%) that was dissolved in DMSO, 20 μL of a 400 U/mL of a tyrosinase solution (originating from mushroom), and 79 μL of distilled water. Thereto were added a reaction solution (0.1 mg/mL L-tyrosine solution (Wako Pure Chemical Industries, Ltd.)) and 100 μL of a 1.3-mM copper sulfate pentahydrate solution (Wako Pure Chemical Industries, Ltd.)/a 60-mM phosphate buffer (pH: 6.0). The resultant was incubated at 37° C. for one hour. Thereafter, the absorbance of the sample was measured at 640 nm. This was used as a measured value (testing sample measured value or control measured value). The tyrosinase inhibiting activity (%)=(the absorbance of each of the samples/the absorbance of the control)×100

tyrosinase inhibiting capability [3] | Compound | elastase inhibiting capability [1] | inhibition of the production of melanin per living cell (B16F10 melanoma cells) | inhibition of the production of ET-1 [2]
 | COc1ccc(C[C@H]2COC(=O)[C@@H]2Cc2ccc(OC(C)=O)c(OC)c2)cc1OC [Example 1, Acetoxyarctigenin] | far stronger elastase inhibiting capability than arctigenin |  | 
 | Arctigenin Propionate [Example 2] | far stronger elastase inhibiting capability than arctigenin | more significantly inhibited the production of melanin per living cell than arctigenin | 
no tyrosinase inhibiting capability | Palmitate Arctigenin [Comparative Example 1] |  |  | does not significantly inhibit the production of ET-1
